The values below come from PMC8795383, “Docking-guided rational engineering of a macrolide glycosyltransferase glycodiversifies epothilone B” (Communications Biology, 2022).

A short description of data set [1]: physchem. Type of data set: physicochemical. The conditions noted are these: water. How it is done:
The water solubility of EpoB and its glycosides was determined using the minimum shake-flask solubility method[26],[75].

Data set [2] relates to liver carcinoma cell line HepG2. Nature of the data set: MTT antitumor assay. Type of data set: cell-based, human. The source says: (§1) NDP-glucose (UDPG, ADPG, TDPG, and GDPG), UDP-N-acetylglucosamine (UDP-GlcNAc), UDP-galactose (UDP-Gal), and UDP-glucuronic acid (UDP-GlcA) were purchased from Sigma-Aldrich (St. Louis, MO, USA). UDP-GlcNAz, UDP-GalNAz, UDP-GlcNTFA, UDP-GalNTFA, UDP-GalNAc, UDP-GalA, CMP-Neu5Ac, GDP-Fuc and GDP-Man were kindly provided by Professor Junqiang Fang[59]–[63]. Epothilone B was purchased from Zhejiang Hisun Pharmaceutical Co., Ltd. The human liver carcinoma cell line HepG2 and human hepatocyte cell line HL-7702 were purchased from Gaining (Gaining Bio. Co., Ltd, Shanghai, China). The cells were cultivated in T-25 flasks in a Thermo Scientific CO2 incubator in a humidified environment at 37°C and 5% CO2. HepG2 cells were preserved in DMEM (Gibco, Thermo Fisher Scientific, Waltham, MA, USA), while HL-7702 cells were preserved in RPMI-1640 (Gibco, Thermo Fisher Scientific, Waltham, MA, USA). All cultures contained 10% fetal calf serum and 1% penicillin C/streptomycin. All chemicals and reagents are of analytical grade.
(§2) By using the MTT colorimetric assay, the antitumor and cytotoxicity of EpoB and its glucosides were tested against the liver carcinoma cell line HepG2 and hepatocyte cell line HL-7702, respectively. The cells were seeded in a 96-well microtiter plate, and the wall-attached cells were treated with varying concentrations of drugs by dilution from 300 μM to 0.1 μM for EpoB glycosides (dissolved in DMSO). After 48 h of incubation with the test compounds, the cultures were treated with MTT (2 mg/mL) solution, and the cells were incubated for an additional 4 h at 37°C until a purple precipitate was visible. The purple formazan crystals were dissolved in DMSO, and the absorbance of each sample was measured at 492 nm using a microplate reader. All MTT assay experiments were performed in triplicate, and IC50 values were calculated using GraphPad Prism software (Version 6.01)[26].
(Tetrazolium assays rely on reduction of a dye to a coloured formazan, in cell work by metabolically active cells.)

The test system of data set [3] is hepatocyte cell line HL-7702. As to the kind of experiment: MTT cytotoxicity assay. Type of data set: cell-based, human.
Excerpt: as §1, §2

Data set [4] has as its target T1, BsGT-1 I62A (Bacillus subtilis, UniProt O34539, I62A).
T1 construct: made in house; host or cells: E. coli BL21 (DE3)
Type of data set: biochemical. The conditions noted are these: EpoB converted to 1a, sugar donor 2a. The method, then: (§3) Kinetic parameters of BsGT-1 and its mutants for the glycosylation of epothilone B were measured in a reaction mixture (50 μl) containing 20 μg/mL protein, saturated sugar donors, different concentrations of epothilone B, and 50 mM Tris–HCl buffer (50 mM Tris–HCl, pH 7.5, 10 mM MgCl2) at 37°C for 10 min in triplicate. The kinetic values were determined by fitting the Michaelis–Menten curve to the data using the nonlinear regression method (Supplementary Figs. 13–14).

Data set [5] addresses T2, BsGT-1 F231S (Bacillus subtilis, UniProt O34539, F231S).
T2 construct: made in house; host or cells: E. coli BL21 (DE3)
Nature of the data set: Glycosylation kinetics, BsGT-1 F231S mutant. Type of data set: biochemical. The conditions noted are these: EpoB converted to 1h, sugar donor 2h. The method, then:
as §3

For data set [6], the target named is T3, BsGT-1 M296A (Bacillus subtilis, UniProt O34539, M296A).
T3 construct: made in house; host or cells: E. coli BL21 (DE3)
Nature of the data set: Glycosylation kinetics, BsGT-1 M296A mutant. Type of data set: biochemical. The conditions noted are these: EpoB converted to 1i, sugar donor 2i. How it is done:
as §3

The target of data set [7] is T4, BsGT-1 Q318C (Bacillus subtilis, UniProt O34539, Q318C).
T4 construct: made in house; host or cells: E. coli BL21 (DE3)
Nature of the data set: Glycosylation kinetics, BsGT-1 Q318C mutant. Type of data set: biochemical. Particulars: EpoB converted to 1e, sugar donor 2e. How it is done:
as §3

For data set [8], the system named is HepG2 cells. As to the kind of experiment: Cellular intake assay (HPLC-DAD). Type of data set: in vitro ADME, human. Particulars: HepG2, 5 μM, 1 h. How it is done:
HepG2 cells (1 × 10^5−1 × 10^6 cells/mL) were cultivated overnight at 37°C and then treated with 5 μM EpoB and glycosides for 1 h. After removing the supernatant, the cells were sequentially rinsed with PBS buffer, trypsinized, and then washed with DMEM. Next, the cells were suspended in acetone, disrupted by ultrasonication, and centrifuged at 12000 rpm for 10 min to remove the debris. The resulting supernatants were dried with nitrogen and then redissolved in 200 μL of methanol. Finally, the compounds were analyzed by HPLC-DAD at 249 nm. Each experiment was conducted in three replicates. The concentrations of EpoB and its glycosides (cellular intake) were calculated based on the linear fitting regression equations of the HPLC peak areas.

Data set [9] concerns HepG2 cells. As to the kind of experiment: Immunofluorescence confocal imaging of tubulin. Type of data set: cell-based, human. The conditions noted are these: HepG2, 24 h. The method, then: Freshly trypsinized HepG2 cells (1 × 10^4−1 × 10^5) were seeded in a 12-well plate and cultivated for 24 h with DMEM (Gibco, Thermo Fisher Scientific, Waltham, MA, USA). Cells were treated with EpoB and 1a at different concentrations (50 nM, 500 nM, and 5 μM) according to the IC50 values for 24 h. The supernatants were removed, and the cells were washed with PBS buffer 2–3 times. The cells were further fixed with 4% paraformaldehyde for 1 h and then permeabilized with 0.2% Triton X-100 (diluted in PBS buffer) for 10 min. Next, the cells were blocked with bovine serum albumin (BSA) for 30 min and incubated with a primary antibody against β-tubulin (1:50, diluted in 2% BSA, β-tubulin Rabbit Monoclonal Antibody, Beyotime Biotechnology) for 1 h at room temperature. After that, the cells were treated with Alexa Fluor 488 goat anti-rabbit IgG (H + L) (secondary antibody, 1:500, diluted in 2% BSA, Beyotime Biotechnology) for another 1 h. The supernatants were removed, the cells were washed, and the nuclei were labeled with DAPI for 10 min. Images were collected using an Olympus BX81 fluorescence microscope system (Olympus, Tokyo, Japan) and a confocal microscope (UltraVIEW®VoX).

[10] abbreviates: Homo sapiens, HepG2, 48 h, read-out: IC50 HepG2, MTT, 48 h.
[11] abbreviates: read-out: IC50 HepG2, MTT, 48 h.
The mark [12] stands for this setting: Homo sapiens, L02, 48 h, read-out: IC50 HL-7702, MTT, 48 h.
Setting [13] is: read-out: IC50 HL-7702, MTT, 48 h.
Where [14] appears, read: 25 °C, thermodynamic from solid, read-out: Solubility.

≈ marks a conversion by molar mass, not a printed value. Read-outs that look alike come from different tables or passages of the source. Some results are limits rather than exact numbers.

Take `C/C(=C\c1csc(C)n1)[C@@H]1C[C@@H]2O[C@]2(C)CCC[C@H](C)[C@H](O)[C@@H](C)C(=O)C(C)(C)[C@@H](O)CC(=O)O1` [EpoB, epothilone B]: the solubility in [1] (thermodynamic from solid, 25°C, read-out: Solubility) amounted to 190 ± 30 µg/mL (≈ 0.374 mM). Moreover, the IC50 is under 0.002 µM in data set [2] (setting [10]), 0.00139 ± 0.0003 µM in data set [2] (setting [11]), under 0.003 µM in [3] (setting [12]) and 0.00293 ± 0.00053 µM in data set [3] (setting [13]). The Km worked out at 43.6 ± 4.16 µM in data set [4], 127 ± 12.9 µM in data set [5], 147 ± 17 µM in data set [6] and 95.9 ± 7.98 µM in data set [7]. The kcat in data set [4] stood at 0.3975 ± 0.023 s⁻¹; in [5], 0.0723 ± 0.0033 s⁻¹; in [6] it was 0.0555 ± 0.003 s⁻¹; in data set [7], 0.164 ± 0.00367 s⁻¹.

In turn, `CC(=Cc1csc(C)n1)C1CC2OC2(C)CCCC(C)C(OC2OC(CO)C(O)C(O)C2O)C(C)C(=O)C(C)(C)C(O)CC(=O)O1` (stereo not shown) [1i] yielded a solubility in data set [1] (25°C) of 3370 ± 550 µg/mL (≈ 5.03 mM). In addition, in [2] (HepG2, relative to 1a), the “activity higher than that of glucose-modified EpoB (1a)” value was about 10 fold. The IC50 in [2] (setting [11]) turned out to be 1.09 ± 0.26 µM; in [3] (setting [13]), 9.13 ± 1.02 µM. Moreover, the “cellular intake rate, lower than that of EpoB” value in [8] was 8 fold.

As for `CC(=Cc1csc(C)n1)C1CC2OC2(C)CCCC(C)C(OC2OC(CO)C(O)C(OC3OC(CO)C(O)C(O)C3O)C2O)C(C)C(=O)C(C)(C)C(O)CC(=O)O1` [1b, EpoB 7-O-β-D-glucosyl-(1 → 3)-β-D glucoside], the solubility in [1] (setting [14]) worked out at 86400 ± 1450 µg/mL (≈ 104 mM). The IC50 in [2] (setting [10]) is over 100 µM.

For the compound `C/C(=C\c1csc(C)n1)[C@@H]1C[C@@H]2O[C@]2(C)CCC[C@H](C)[C@H](O[C@@H]2O[C@H](CO)[C@@H](O[C@@H]3O[C@H](CO)[C@@H](O)[C@H](O)[C@H]3O[C@@H]3O[C@H](CO)[C@@H](O)[C@H](O)[C@H]3O)[C@H](O)[C@H]2O)[C@@H](C)C(=O)C(C)(C)[C@@H](O)CC(=O)O1` [1d, epothilone B 7-O-β-D-glucosyl-(1 → 2)-β-D-glucosyl-(1 → 4)-β-D glucoside], the solubility in data set [1] (25°C) was 184830 ± 3500 µg/mL (≈ 186 mM). Moreover, the 50% inhibitory concentration (IC50) stood at 38.2 ± 2.41 µM in data set [2] (MTT, 48 h, read-out: IC50 HepG2) and 42.8 ± 1.15 µM in data set [3] (MTT, 48 h, read-out: IC50 HL-7702).

For the compound `CC(=O)NC1C(OC2C(C)CCCC3(C)OC3CC(C(C)=Cc3csc(C)n3)OC(=O)CC(O)C(C)(C)C(=O)C2C)OC(CO)C(O)C1O` (stereo not shown) [1e], the solubility in [1] (setting [14]) worked out at 8220 ± 930 µg/mL (≈ 11.6 mM). In addition, the IC50 in [2] (setting [10]) stood at 19.8 ± 0.88 µM; in data set [3] (setting [12]), 31.1 ± 3.77 µM.

With `CC(=Cc1csc(C)n1)C1CC2OC2(C)CCCC(C)C(OC2OC(CO)C(O)C(O)C2O)C(C)C(=O)C(C)(C)C(O)CC(=O)O1` (stereo not drawn) [1a, EpoB 7-O-β-D glucoside], the solubility in data set [1] (25°C) was found to be 1550 ± 90 µg/mL (≈ 2.31 mM). For the same compound, the values for the IC50 in data set [2] (setting [11]) and in [3] (setting [13]) were 9.84 ± 0.57 µM and 27.6 ± 1.76 µM, respectively. Moreover, the “cellular intake rate, lower than that of EpoB” value in data set [8] is on record as 12 fold. The “penetration into tumor cells and interaction with tubulin” value in [9] is “could penetrate into the tumor cells and interact with tubulin”.

Take `CC(=Cc1csc(C)n1)C1CC2OC2(C)CCCC(C)C(OC2OC(CO)C(O)C(O)C2OC2OC(CO)C(O)C(O)C2O)C(C)C(=O)C(C)(C)C(O)CC(=O)O1` [1c, EpoB 7-O-β-D-glucosyl-(1 → 2)-β-D glucoside]: the solubility in data set [1] (setting [14]) turned out to be 83000 ± 1540 µg/mL (≈ 99.8 mM). Also, the concentration for half-maximal inhibition (IC50) in data set [2] (setting [10]) was found to be 34.2 ± 4.16 µM; in data set [3] (setting [12]), 46.6 ± 0.48 µM.

On to `CC(=Cc1csc(C)n1)C1CC2OC2(C)CCCC(C)C(OC2OC(CO)C(O)C(O)C2NC(=O)CN=[N+]=[N-])C(C)C(=O)C(C)(C)C(O)CC(=O)O1` (stereo not shown) [1h], for which the solubility in [1] (setting [14]) worked out at 4340 ± 540 µg/mL (≈ 5.77 mM). Also, the figures for the half-inhibitory concentration (IC50) in data set [2] (setting [10]) and in data set [3] (setting [12]) were 30.2 ± 2.91 µM and 40.4 ± 1.73 µM, respectively.

What is called solubility is the dissolved amount per volume that the medium holds. By IC50 is commonly meant the midpoint of a concentration-inhibition curve. As a reminder, the Km is the concentration of substrate that gives half-maximal velocity. A word on the kcat: it is the number of substrate molecules converted per active site and unit of time at saturation.
